From patent publication US5250283A, “Organic contrast agent analog and method of making same” (priority 1992, dated 1993)
Read-outs that look alike come from different tables or passages of the source.

What was measured:
[1] = Tissue distribution 90 min after i.v. TFA-IOP (100 umol/kg) or IOP (100 in text, 104 umol/kg in tables) in rats; format: in vivo; conditions: rat; for concentration at 1.5 h: 100 umol/kg; for concentration at 1.5 h / uMoles per gram tissue / uMoles per kg / Percentage of dose in tissue: i.v.; for Percentage of dose in tissue: Table 6; for tissue uptake at 1.5 h: read-out: Percentage of dose per gram
Source text: No standard curves were compiled for these tissues. The values given
represent concentrations generated using the LIVER analysis routine and
standard curve. Because this routine utilizes a control LIVER spectra for
background modeling, erroneous Iodine concentration values for these
tissues may result due to inappropriate background removal.

[2] = Plasma concentration after i.v. IOP or TFA-IOP in rats; format: in vivo; conditions: plasma, iv, 100 umol/kg, rat
[3] = Biliary excretion and bile flow after i.v. TFA-IOP (100 umol/kg) or IOP (100 in text, 104 umol/kg in tables) in rats; conditions: for Percentage of dose per kg. body wt.: rat bile; for Percentage of dose per kg. body wt. / Bile flow / Bile flow per kg b.w. / Bile flow per kg l.w.: i.v.
Protocol: Tissues examined included liver, spleen, upper GI, lower GI, kidney, lung and heart. The length of each study was 90 minutes, during which time bile, urine and plasma samples were taken to monitor uptake and excretion. NMR relaxation rates for liver and plasma were also examined to note whether uptake of either compound might possible alter these parameters.

[4] = Urinary excretion after i.v. IOP or TFA-IOP in rats; format: in vivo; conditions: rat

## CCC(Cc1c(I)cc(I)c(N)c1I)C(=O)O (centres unmarked) [IOP, iopanoic acid, reference compound]
[1]; heart, iv, 90 min, liver standard curve used, may be erroneous, read-out: Heart concentration
  concentration at 1.5 h: 259 µM
[1]; 90 min, heart
  uMoles per gram tissue: .26 uMOLES per gram
  uMoles per kg: 259.38 uMOLES per kg
  Percentage of dose in tissue: .72 PERCENTAGE OF DOSE
[1]; 90 min, kidney
  uMoles per gram tissue: .11 uMOLES per gram
  uMoles per kg: 105.40 uMOLES per kg
  Percentage of dose in tissue: .69 PERCENTAGE OF DOSE
[1]; 90 min, liver
  uMoles per gram tissue: .51 uMOLES per gram
  uMoles per kg: 511.90 uMOLES per kg
  Percentage of dose in tissue: 14.52 PERCENTAGE OF DOSE
[1]; 90 min, lower GI
  uMoles per gram tissue: .14 uMOLES per gram
  uMoles per kg: 135.23 uMOLES per kg
  Percentage of dose in tissue: .59 PERCENTAGE OF DOSE
[1]; 90 min, lung
  uMoles per gram tissue: .32 uMOLES per gram
  uMoles per kg: 324.91 uMOLES per kg
  Percentage of dose in tissue: 1.21 PERCENTAGE OF DOSE
[1]; 90 min, spleen
  uMoles per gram tissue: .26 uMOLES per gram
  uMoles per kg: 255.54 uMOLES per kg
  Percentage of dose in tissue: .45 PERCENTAGE OF DOSE
[1]; 90 min, upper GI
  uMoles per gram tissue: .31 uMOLES per gram
  uMoles per kg: 307.91 uMOLES per kg
  Percentage of dose in tissue: 1.31 PERCENTAGE OF DOSE
[1]; in vivo, iv, 90 min
  % of dose in heart: 0.72%
  % of dose in kidney: 0.69%
  % of dose in liver: 14.53%
  % of dose in lower GI: 0.59%
  % of dose in lung: 1.21%
  % of dose in spleen: 0.45%
  % of dose in upper GI: 1.31%
[1]; in vivo, iv, 90 min, heart
  tissue uptake at 1.5 h: 0.61 %ID/g
[1]; in vivo, iv, 90 min, kidney
  tissue uptake at 1.5 h: 0.25 %ID/g
[1]; in vivo, iv, 90 min, liver
  tissue uptake at 1.5 h: 1.21 %ID/g
[1]; in vivo, iv, 90 min, lower GI
  tissue uptake at 1.5 h: 0.32 %ID/g
[1]; in vivo, iv, 90 min, lung
  tissue uptake at 1.5 h: 0.77 %ID/g
[1]; in vivo, iv, 90 min, spleen
  tissue uptake at 1.5 h: 0.61 %ID/g
[1]; in vivo, iv, 90 min, upper GI
  tissue uptake at 1.5 h: 0.73 %ID/g
[1]; kidney, iv, 90 min post injection, read-out: Kidney concentration
  concentration at 1.5 h: 105 µM
[1]; kidney, iv, 90 min post injection, read-out: kidney concentration
  concentration at 1.5 h: 105 µM
[1]; liver, iv, 90 min post injection, read-out: Liver concentration
  concentration at 1.5 h: 512 µM
[1]; liver, iv, 90 min post injection, read-out: liver concentration
  concentration at 1.5 h: 512 µM
[1]; lower gi, iv, 90 min, liver standard curve used, may be erroneous, read-out: Lower GI concentration
  concentration at 1.5 h: 135 µM
[1]; lung, iv, 90 min, liver standard curve used, may be erroneous, read-out: Lung concentration
  concentration at 1.5 h: 325 µM
[1]; spleen, iv, 90 min, liver standard curve used, may be erroneous, read-out: Spleen concentration
  concentration at 1.5 h: 256 µM
[1]; upper gi, iv, 90 min, liver standard curve used, may be erroneous, read-out: Upper GI concentration
  concentration at 1.5 h: 308 µM
[2]; 30 min
  concentration at 0.5 h: 557 µM
[2]; 50 min
  concentration at 50 min: 508 µM
[2]; 60 min
  concentration at 1 h: 462 µM
[2]; 70 min
  concentration at 70 min: 462 µM
[2]; 80 min
  concentration at 80 min: 404 µM
[2]; 90 min
  concentration at 1.5 h: 373 µM
[3]; 0-10 min
  Percentage of dose per kg. body wt.: 1.29 PERCENTAGE OF DOSE per kg. bod
[3]; 10-20 min
  Percentage of dose per kg. body wt.: 4.38 PERCENTAGE OF DOSE per kg. bod
[3]; 20-30 min
  Percentage of dose per kg. body wt.: 6.60 PERCENTAGE OF DOSE per kg. bod
[3]; 30-40 min
  Percentage of dose per kg. body wt.: 5.61 PERCENTAGE OF DOSE per kg. bod
[3]; 40-50 min
  Percentage of dose per kg. body wt.: 6.55 PERCENTAGE OF DOSE per kg. bod
[3]; 50-60 min
  Percentage of dose per kg. body wt.: 3.86 PERCENTAGE OF DOSE per kg. bod
[3]; 60-70 min
  Percentage of dose per kg. body wt.: 4.71 PERCENTAGE OF DOSE per kg. bod
[3]; 70-80 min
  Percentage of dose per kg. body wt.: 4.61 PERCENTAGE OF DOSE per kg. bod
[3]; 80-90 min
  Percentage of dose per kg. body wt.: 5.45 PERCENTAGE OF DOSE per kg. bod
[3]; rat, bile, iv, 100 umol/kg
  Cmax at 1.5 h: 10000 µM
  concentration at 5 min: 1610 µM
  concentration at 10 min: 1610 µM
  concentration at 0.25 h: 8660 µM
  concentration at 20 min: 8660 µM
  concentration at 25 min: 10500 µM
  concentration at 0.5 h: 10500 µM
  concentration at 35 min: 9850 µM
  concentration at 40 min: 9850 µM
  concentration at 50 min: 9670 µM
  concentration at 55 min: 7320 µM
  concentration at 1 h: 7320 µM
  concentration at 65 min: 7530 µM
  concentration at 70 min: 7530 µM
  concentration at 1.25 h: 7760 µM
  concentration at 80 min: 7760 µM
  concentration at 85 min: 9560 µM
  concentration at 1.5 h: 9560 µM
  dose excreted at 1.5 h: 18%
[3]; rat, 0-10 min
  Bile flow: .01375 mL/min
  Bile flow per kg b.w.: .03386 ml/min per kg b.w.
  Bile flow per kg l.w.: 1.147 ml/min per kg l.w.
[3]; rat, 10-20 min
  Bile flow: .00867 mL/min
  Bile flow per kg b.w.: .02136 ml/min per kg b.w.
  Bile flow per kg l.w.: .72404 ml/min per kg l.w.
[3]; rat, 20-30 min
  Bile flow: .01077 mL/min
  Bile flow per kg b.w.: .02652 ml/min per kg b.w.
  Bile flow per kg l.w.: .89866 ml/min per kg l.w.
[3]; rat, 30-40 min
  Bile flow: .00977 mL/min
  Bile flow per kg b.w.: .02406 ml/min per kg b.w.
  Bile flow per kg l.w.: .81528 ml/min per kg l.w.
[3]; rat, 40-50 min
  Bile flow: .01161 mL/min
  Bile flow per kg b.w.: .02861 ml/min per kg b.w.
  Bile flow per kg l.w.: .96953 ml/min per kg l.w.
[3]; rat, 50-60 min
  Bile flow: .00904 mL/min
  Bile flow per kg b.w.: .02225 ml/min per kg b.w.
  Bile flow per kg l.w.: .75417 ml/min per kg l.w.
[3]; rat, 60-70 min
  Bile flow: .01072 mL/min
  Bile flow per kg b.w.: .02640 ml/min per kg b.w.
  Bile flow per kg l.w.: .89457 ml/min per kg l.w.
[3]; rat, 70-80 min
  Bile flow: .01018 mL/min
  Bile flow per kg b.w.: .02506 ml/min per kg b.w.
  Bile flow per kg l.w.: .84942 ml/min per kg l.w.
[3]; rat, 80-90 min
  Bile flow: .00977 mL/min
  Bile flow per kg b.w.: .02407 ml/min per kg b.w.
  Bile flow per kg l.w.: .81586 ml/min per kg l.w.
[3]; rat, in vivo, iv, 100 umol/kg, Percentage of dose in bile sample, 0-10 min
  dose excreted at 10 min: 0.52%
[3]; rat, in vivo, iv, 100 umol/kg, Percentage of dose in bile sample, 10-20 min
  dose excreted at 20 min: 1.78%
[3]; rat, in vivo, iv, 100 umol/kg, Percentage of dose in bile sample, 20-30 min
  dose excreted at 0.5 h: 2.68%
[3]; rat, in vivo, iv, 100 umol/kg, Percentage of dose in bile sample, 30-40 min
  dose excreted at 40 min: 2.28%
[3]; rat, in vivo, iv, 100 umol/kg, Percentage of dose in bile sample, 40-50 min
  dose excreted at 50 min: 2.66%
[3]; rat, in vivo, iv, 100 umol/kg, Percentage of dose in bile sample, 50-60 min
  dose excreted at 1 h: 1.57%
[3]; rat, in vivo, iv, 100 umol/kg, Percentage of dose in bile sample, 60-70 min
  dose excreted at 70 min: 1.91%
[3]; rat, in vivo, iv, 100 umol/kg, Percentage of dose in bile sample, 70-80 min
  dose excreted at 80 min: 1.87%
[3]; rat, in vivo, iv, 100 umol/kg, Percentage of dose in bile sample, 80-90 min
  dose excreted at 1.5 h: 2.21%
[3]; rat, in vivo, iv, 100 umol/kg, Percentage of dose running total in bile, through 0-10 min
  dose excreted at 10 min: 0.52%
[3]; rat, in vivo, iv, 100 umol/kg, Percentage of dose running total in bile, through 10-20 min
  dose excreted at 20 min: 2.3%
[3]; rat, in vivo, iv, 100 umol/kg, Percentage of dose running total in bile, through 20-30 min
  dose excreted at 0.5 h: 4.98%
[3]; rat, in vivo, iv, 100 umol/kg, Percentage of dose running total in bile, through 30-40 min
  dose excreted at 40 min: 7.26%
[3]; rat, in vivo, iv, 100 umol/kg, Percentage of dose running total in bile, through 40-50 min
  dose excreted at 50 min: 9.92%
[3]; rat, in vivo, iv, 100 umol/kg, Percentage of dose running total in bile, through 50-60 min
  dose excreted at 1 h: 11.5%
[3]; rat, in vivo, iv, 100 umol/kg, Percentage of dose running total in bile, through 60-70 min
  dose excreted at 70 min: 13.4%
[3]; rat, in vivo, iv, 100 umol/kg, Percentage of dose running total in bile, through 70-80 min
  dose excreted at 80 min: 15.3%
[3]; rat, in vivo, iv, 100 umol/kg, Percentage of dose running total in bile, through 80-90 min
  dose excreted at 1.5 h: 17.5%
[4]; 0-20 min
  Urine concentration: 0 µM
[4]; 20-40 min
  Urine concentration: 0 µM
[4]; 40-60 min
  Urine concentration: 0 µM
[4]; 60-80 min
  Urine concentration: 0 µM
[4]; 80-90 min
  Urine concentration: 0 µM
